“And” between values parts separate entries of the source, which are not always exact repeats. Equal entries are not always repeated.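 How tested: cells in 96-well plates exposed to compound for 48 hours at five concentrations. Here, GI50 denotes the concentration required for 50% inhibition of growth. At the TGI there is no net growth.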
Key:
Test in all cases: NCI-60 cell line screen, 48 h
786-0 renal = system: 786-0 renal
HS 578T breast = system: HS 578T breast
IGROV1 ovarian = system: IGROV1 ovarian
LOX IMVI melanoma = system: LOX IMVI melanoma
NCI/ADR-RES ovarian = system: NCI/ADR-RES ovarian
OVCAR-4 ovarian = system: OVCAR-4 ovarian
SN12C renal = system: SN12C renal
SW-620 colon = system: SW-620 colon
T-47D breast = system: T-47D breast
UO-31 renal = system: UO-31 renal

SMILES	GI50 (786-0 renal)	TGI (786-0 renal)	GI50 (HS 578T breast)	TGI (HS 578T breast)	GI50 (IGROV1 ovarian)	TGI (IGROV1 ovarian)	GI50 (LOX IMVI melanoma)	TGI (LOX IMVI melanoma)	GI50 (NCI/ADR-RES ovarian)	TGI (NCI/ADR-RES ovarian)	GI50 (OVCAR-4 ovarian)	TGI (OVCAR-4 ovarian)	GI50 (SN12C renal)	TGI (SN12C renal)	GI50 (SW-620 colon)	TGI (SW-620 colon)	GI50 (T-47D breast)	TGI (T-47D breast)	GI50 (UO-31 renal)	TGI (UO-31 renal)
COc1ccc(-c2c(NC(=O)Nc3ccc(Cl)c(C(F)(F)F)c3)cnn2-c2ccc(S(N)(=O)=O)cc2)cc1	1.68 µM	3.42 µM	3.41 µM	16.9 µM	3.66 µM	21.3 µM	2.75 µM	8.36 µM	24.7 µM	> 100 µM	2.9 µM	13.1 µM	3.58 µM	13.1 µM	3.86 µM	13.8 µM	2.69 µM	12.4 µM	3.39 µM	15.1 µM
C=C[C@@H]1CCC/C=C/[C@@H]2C[C@H](O)C[C@H]2[C@H](O)/C=C/C(=O)O1	0.257 µM	0.606 µM	0.477 µM	> 100 µM	1.7 µM	> 100 µM	0.269 µM	0.815 µM	0.365 µM	11.6 µM	0.407 µM	> 94.6 µM	1.53 µM	> 100 µM	0.361 µM	1.57 µM	1.21 µM	4.28 µM	0.37 µM	> 100 µM
O=C1CC=C2C3CC4N(CCC45c4ccccc4N1C25)C/C3=C\CO (centres undefined)		> 100 µM		> 100 µM		> 100 µM		> 100 µM		> 100 µM		> 100 µM		> 100 µM		> 100 µM		> 100 µM		> 100 µM
COC(=O)[C@@H](C)C[C@H](Cc1ccc(F)cc1)NC(=O)c1csc([C@@H](C[C@H](C(C)C)N(C)C(=O)[C@@H](NC(=O)[C@H]2CCCCN2C)C2CC2)OC(C)=O)n1	0.831 µM	> 25 µM	0.307 µM	> 7.76 µM	0.34 µM	> 25 µM	0.272 µM	> 25 µM	6.88 µM	> 25 µM	2.37 µM	> 25 µM	0.357 µM	> 25 µM	0.129 µM	> 25 µM	> 25 µM	> 25 µM	1.91 µM	> 25 µM
O=c1oc2ccc(F)cc2c(=O)n1-c1ccc(I)cc1F	1.67 µM	8.1 µM	0.352 µM	2.52 µM	0.397 µM	15.6 µM	0.374 µM	2.29 µM	0.522 µM	5.89 µM	0.298 µM		0.381 µM	5.45 µM	0.584 µM	13.3 µM	0.29 µM	9.24 µM	0.241 µM	1.46 µM
O=c1cc(-c2ccccc2)oc2c(O)c(O)ccc12	5.99 µM	75.1 µM	37.2 µM	> 100 µM	6.99 µM	47.1 µM	9.58 µM	> 100 µM	4.04 µM	67.5 µM	3.73 µM	> 100 µM	12.2 µM	> 100 µM	6.66 µM	> 100 µM	16.9 µM	> 100 µM	3.02 µM	29 µM
COc1cc(OCCCN2CCCC2)ccc1Nc1ncc(Cl)c(Nc2ccccc2P(C)(C)=O)n1	2.7 µM	11.6 µM	2.22 µM	10 µM	1.41 µM	22.5 µM	1.32 µM	4.4 µM	12.6 µM	> 77.4 µM	1.52 µM	11.7 µM	2.52 µM	25.5 µM	1.37 µM	5.36 µM	8.71 µM	54.3 µM	2.28 µM	6.31 µM
N#Cc1c(N)c(C(=O)c2ccc3c(c2)OCCO3)n2c1CCCC2	5.31 µM	> 100 µM	3.08 µM	> 74.9 µM	6.92 µM	> 100 µM	6.92 µM	> 100 µM	1.12 µM	> 52.5 µM	> 69.1 µM	> 100 µM	6.13 µM	> 100 µM	2.07 µM	> 100 µM	4.38 µM	> 100 µM	6.3 µM	> 100 µM
O=C1NN(C(=O)c2ccccc2)C(c2ccc(Cl)c(Cl)c2)=C/C1=C\c1ccccc1[N+](=O)[O-]	2.2 µM	> 6.75 µM	2.46 µM	> 6.75 µM	1.59 µM	> 6.75 µM	1.14 µM	3.49 µM	2.29 µM	> 6.75 µM	2.26 µM	> 6.75 µM	2.4 µM	> 6.75 µM	2.27 µM	> 6.75 µM	2.25 µM	> 6.75 µM	0.735 µM	6.7 µM
C[C@]12CC[C@@H]3c4ccc(O)cc4CC[C@H]3[C@@H]1CC(Cc1ccccc1)(Cc1ccccc1)C2=O	13.6 µM	26.7 µM	30.9 µM	> 100 µM	20.3 µM	41.5 µM	12.7 µM	27.2 µM	16.5 µM	30.7 µM	12.7 µM	27.3 µM	14.8 µM	29.2 µM	14.2 µM	30 µM	11 µM	34.6 µM	15.8 µM	31.3 µM
O=C1/C(=C/c2ccc(Cl)cc2)N=C(c2ccccc2)N1c1cc(C(F)(F)F)ccc1Cl	14.4 µM	50.6 µM	21.4 µM	66.5 µM	18.5 µM	85.7 µM	16.5 µM	41.2 µM	22.3 µM	77.6 µM	20.2 µM	89.7 µM	30.5 µM	> 100 µM	28.9 µM	> 100 µM	22.4 µM	> 100 µM	19.4 µM	> 100 µM
COc1nc2c(c(=O)n1C)CN(c1ccccc1)C(=O)CN2C	> 100 µM	> 100 µM	13 µM	73.4 µM	4.33 µM	> 100 µM	> 100 µM	> 100 µM	72.2 µM	> 100 µM	71.2 µM	> 100 µM	56.4 µM	> 100 µM	> 100 µM	> 100 µM	11.1 µM	> 100 µM	5.73 µM	> 100 µM
Oc1c(CN2CCCCC2)ccc2cccnc12	2.72 µM	> 100 µM	11.1 µM	> 100 µM	2.52 µM	7.8 µM	3.6 µM	17.3 µM	0.955 µM	10.9 µM	2.98 µM	9.59 µM	4.62 µM	> 100 µM	4.26 µM	18 µM	3.63 µM	31 µM	0.566 µM	5.42 µM
C[C@]1(c2nc3c(C(N)=O)cccc3[nH]2)CCCN1	> 100 µM	> 100 µM	> 100 µM	> 100 µM	32.7 µM and 60.5 µM	> 100 µM	66.1 µM and 97.7 µM	> 100 µM	> 100 µM	> 100 µM	66.1 µM and > 100 µM	> 100 µM	79.9 µM and > 85.5 µM	> 100 µM	89.4 µM and > 100 µM	> 100 µM	68.4 µM and > 100 µM	> 100 µM	> 92.8 µM	> 100 µM
Cn1cc(-c2ncnc3ccc(-c4cnc(Cl)c(NS(C)(=O)=O)c4)cc23)c2ccccc21	1.44 µM	> 100 µM	0.14 µM	1.64 µM	0.0964 µM	0.852 µM	0.48 µM	11.8 µM	1.24 µM	30.3 µM	0.921 µM	6.99 µM	0.856 µM	> 100 µM	1.28 µM	> 100 µM	0.0944 µM	0.691 µM	0.164 µM	5 µM
Cc1cc2[nH]c(=O)c3c4ncccc4cn3c2cc1C	3.06 µM	8.42 µM	5.93 µM	52.2 µM	2.75 µM	> 100 µM	1.72 µM	3.34 µM	2.93 µM	> 100 µM	4.17 µM	> 100 µM	3.45 µM	> 100 µM	2.89 µM	> 100 µM	2.37 µM	> 100 µM	1.68 µM	4.58 µM
CC1(C)CC[C@]2(C(=O)NCCNCCN)CC[C@]3(C)C(=CC[C@@H]4[C@@]5(C)CCC(=O)C(C)(C)[C@@H]5CC[C@]43C)[C@@H]2C1	1.71 µM	3.09 µM	1.92 µM	4.17 µM	1.69 µM	3.11 µM	1.81 µM	3.26 µM	7.81 µM	22.7 µM	1.89 µM	3.66 µM	1.68 µM	3.13 µM	1.8 µM	3.56 µM	1.88 µM	3.95 µM	1.65 µM	3.06 µM

Source: PubChem BioAssay (NCI)
